# Patent US8648086B2, “5,6-bicyclic heteroaryl-containing urea compounds as kinase inhibitors” (Ascepion Pharmaceuticals, Inc., priority 2009, dated 2014)
# Counter-ions that a name gives are not always drawn.
# What was measured:
# c-Met = molecular target: T1, c-Met (Homo sapiens, UniProt P08581); experiment: c-Met cell-based assay (phospho-c-Met ELISA, A549 cells); conditions: compound at 100 nM
# T1 construct: endogenous in cells; host or cells: A549 cells
# Description: A procedure for standard cell-based assay for c-Met kinase activity can be used to test compounds of this invention for their inhibitory effect on this kinase and to identify c-Met antagonists.
# Specifically, a compound to be tested was first dissolved in DMSO to a concentration of 10 mM and stored at −20° C. The activity of c-Met in cells depends on the phosphorylation level at its intracellular domain induced by its ligand, Hepatocyte growth factor (HGF). In order to induce the cells to produce phosphate c-Met, paracrine HGF-dependent NSCLC (None Small Cell Lung Cancer) A549 cells were grown in DMEM with 10% FBS.
# To screen compounds of this invention for their inhibitory effect on c-Met kinase, the ELISA kit (R&D Systems) was used. One day before screening procedure, A549 cells were grown in DMEM without the presence of serum. On the day of screening procedure, various concentrations of compounds (from 0.5 nM to 500 nM) were added into the culture medium. Two hours later, 20% of FBS (Fetal Bovine Serum) was added into the medium to stimulate the expression of phosphor-c-Met. After 20 minutes, cell lysate from approximately 5×10^5 A549 cells were reacted with anti-phosphor-c-Met or anti total c-Met antibody in 96 well plates. In the presence of detection antibody, the phosphor-c-Met or total c-Met can be detected with Streptavidin-HRP (R&D Systems) followed by chemiluminescence detection.
# VEGFR2 = molecular target: T2, VEGFR2 (Homo sapiens, UniProt P35968); experiment: VEGFR2 cell-based assay (phospho-VEGFR2 ELISA, transfected CHO cells); conditions: compound at 100 nM, read-out: % VEGFR2 kinase activity remains
# T2 construct: expressed in transfected cells; host or cells: CHO cells, pcDNA3.1 plasmid
# T2 sequence (P35968 20-1356, species assumed): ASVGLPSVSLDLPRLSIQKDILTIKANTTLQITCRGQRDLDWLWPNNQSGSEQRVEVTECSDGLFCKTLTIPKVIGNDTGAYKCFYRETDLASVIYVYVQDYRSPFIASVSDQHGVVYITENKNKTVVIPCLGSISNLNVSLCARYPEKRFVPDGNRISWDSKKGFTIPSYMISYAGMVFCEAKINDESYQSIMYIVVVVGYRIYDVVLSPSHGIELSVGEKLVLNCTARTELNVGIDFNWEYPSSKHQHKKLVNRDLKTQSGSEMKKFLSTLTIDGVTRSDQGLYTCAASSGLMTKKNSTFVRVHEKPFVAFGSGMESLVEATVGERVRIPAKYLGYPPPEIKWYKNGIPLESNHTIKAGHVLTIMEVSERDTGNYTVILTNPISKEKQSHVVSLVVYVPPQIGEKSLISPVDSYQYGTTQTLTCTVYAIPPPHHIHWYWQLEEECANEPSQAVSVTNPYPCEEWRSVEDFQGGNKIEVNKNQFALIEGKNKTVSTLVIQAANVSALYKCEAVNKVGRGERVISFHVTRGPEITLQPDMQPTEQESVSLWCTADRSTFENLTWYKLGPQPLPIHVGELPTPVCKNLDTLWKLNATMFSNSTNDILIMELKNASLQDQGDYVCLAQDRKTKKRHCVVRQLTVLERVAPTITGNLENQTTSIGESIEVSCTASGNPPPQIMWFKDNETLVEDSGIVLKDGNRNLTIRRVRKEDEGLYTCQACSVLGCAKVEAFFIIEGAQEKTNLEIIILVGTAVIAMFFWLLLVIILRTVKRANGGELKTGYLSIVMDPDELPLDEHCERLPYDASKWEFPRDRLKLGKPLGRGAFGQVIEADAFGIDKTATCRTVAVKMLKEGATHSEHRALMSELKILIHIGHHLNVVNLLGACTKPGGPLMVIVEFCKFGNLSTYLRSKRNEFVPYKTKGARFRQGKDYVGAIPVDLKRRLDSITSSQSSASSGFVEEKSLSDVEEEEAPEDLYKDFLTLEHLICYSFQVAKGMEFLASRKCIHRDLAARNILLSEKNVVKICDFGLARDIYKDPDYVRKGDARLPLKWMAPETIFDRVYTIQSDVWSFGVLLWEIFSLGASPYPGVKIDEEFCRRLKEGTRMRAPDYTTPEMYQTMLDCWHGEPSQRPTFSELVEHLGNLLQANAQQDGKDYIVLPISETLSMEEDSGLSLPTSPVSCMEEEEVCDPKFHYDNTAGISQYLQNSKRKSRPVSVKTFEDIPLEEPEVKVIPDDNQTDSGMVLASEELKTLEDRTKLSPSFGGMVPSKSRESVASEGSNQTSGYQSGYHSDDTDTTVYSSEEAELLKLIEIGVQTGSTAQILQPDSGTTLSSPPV
# Description: A standard cell-based assay for VEGFR2 kinase activity can be used to test compounds of this invention and to identify VEGFR2 antagonists.
# Specifically, a compound to be tested was first dissolved in DMSO to a concentration of 10 mM and stored at −20° C. The activity of VEGFR2 in cells depends on the phosphorylation level at its intracellular domain induced by the ligand. In order to express VEGFR2 in the cells, full length VEGFR2 sequence was cloned into PC-DNA3.1 vector, the plasmid was then transfected into CHO cells. After 48 hours, the expression of VEGFR2 in transfected CHO cells was confirmed by regular western blotting.
# To screen the compounds of this invention, the ELISA kit (R&D Systems) was used. One day before the screening, CHO cells transfected with full length VEGFR2 plasmid were grown in DMEM medium without the presence of serum. On the day of screening, various concentrations of compounds (From 0.5 nM to 500 nM) were added into DMEM medium. Two hours later, 20% of FBS (Fetal Bovine Serum) was added into the medium to stimulate the production of phosphor-VEGFR2. Cell lysate from approximately 5×10^5 transfected CHO cells were reacted with anti-phosphor-VEGFR2 or anti-total VEGFR2 antibody in 96 well plates. In the presence of detection antibody, the phosphor-VEGFR2 or total VEGFR2 were detected with Streptavidin-HRP (R&D Systems) followed by chemiluminescence detection.
# PDGFRβ = molecular target: T3, PDGFRβ (Homo sapiens, UniProt P09619); experiment: PDGFRβ cell-based assay (phospho-PDGFRβ ELISA, transfected CHO cells); conditions: compound at 100 nM, read-out: % PDGFRβ kinase activity remains
# T3 construct: expressed in transfected cells; host or cells: CHO cells, pcDNA3.1 plasmid
# T3 sequence (P09619 33-1106, species assumed): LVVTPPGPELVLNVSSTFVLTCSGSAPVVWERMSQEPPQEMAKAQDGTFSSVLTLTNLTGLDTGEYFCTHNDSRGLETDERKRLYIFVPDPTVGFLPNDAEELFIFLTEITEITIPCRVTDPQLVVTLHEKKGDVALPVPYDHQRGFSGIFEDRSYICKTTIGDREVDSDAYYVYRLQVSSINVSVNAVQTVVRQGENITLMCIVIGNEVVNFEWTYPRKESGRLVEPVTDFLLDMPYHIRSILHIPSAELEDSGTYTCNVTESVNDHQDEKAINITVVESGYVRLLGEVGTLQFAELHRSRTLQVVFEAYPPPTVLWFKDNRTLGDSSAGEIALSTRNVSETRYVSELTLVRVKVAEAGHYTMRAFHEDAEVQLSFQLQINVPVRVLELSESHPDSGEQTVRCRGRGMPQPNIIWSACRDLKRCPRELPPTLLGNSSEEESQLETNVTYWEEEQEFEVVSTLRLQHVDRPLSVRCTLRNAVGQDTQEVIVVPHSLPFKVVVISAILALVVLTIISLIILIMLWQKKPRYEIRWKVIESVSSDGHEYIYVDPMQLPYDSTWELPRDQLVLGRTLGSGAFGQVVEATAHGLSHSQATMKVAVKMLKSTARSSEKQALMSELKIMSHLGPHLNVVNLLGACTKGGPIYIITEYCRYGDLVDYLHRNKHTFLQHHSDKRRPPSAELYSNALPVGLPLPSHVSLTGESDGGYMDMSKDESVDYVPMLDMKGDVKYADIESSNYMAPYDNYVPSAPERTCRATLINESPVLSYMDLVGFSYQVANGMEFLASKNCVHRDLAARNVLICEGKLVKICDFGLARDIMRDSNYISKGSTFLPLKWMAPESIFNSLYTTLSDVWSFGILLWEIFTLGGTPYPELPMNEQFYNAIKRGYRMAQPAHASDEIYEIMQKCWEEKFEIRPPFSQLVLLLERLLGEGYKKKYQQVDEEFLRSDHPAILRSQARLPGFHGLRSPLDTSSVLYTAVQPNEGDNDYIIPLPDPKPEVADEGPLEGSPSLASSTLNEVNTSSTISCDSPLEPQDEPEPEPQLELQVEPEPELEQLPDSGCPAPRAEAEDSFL
# Description: A standard cell-based assay for PDGFRβ kinase activity can be used to test a compound of this invention and to identify PDGFRβ antagonists.
# Specifically, a compound to be tested was first dissolved in DMSO to a concentration of 10 mM and stored at −20° C. The activity of PDGFRβ in cells depends on the phosphorylation level of its intracellular domain induced by the ligand. In order to express PDGFRβ in the cell, full length PDGFRβ sequence was cloned into PC-DNA3.1 vector. The plasmid was then transfected into CHO cells. After 48 hours following the transfection, the expression of PDGFRβ in transfected CHO cells was confirmed by regular western blotting.
# To screen the compound of this invention, the ELISA kit (R&D Systems, Minneapolis, Minn., USA) was used. One day before the screening, CHO cells transfected with full length PDGFRβ plasmid were grown in DMEM medium without the presence of serum. On the day of screening, various concentrations of compounds (from 0.5 nM to 500 nM) were added into DMEM medium. Two hours later, 20% of FBS (Fetal Bovine Serum) was added into the medium to stimulate the expression of phosphor-PDGFRβ. Cell lysate from approximately 5×10^5 transfected CHO cells were reacted with anti-phosphor-PDGFRβ or anti-total PDGFRβ antibody in 96 well plates, in the presence of detection antibody, the phosphor-PDGFRβ or total PDGFRβ were detected with Streptavidin-HRP (R&D Systems), followed by chemiluminescent detection.
# T1 sequence (P08581 25-1390): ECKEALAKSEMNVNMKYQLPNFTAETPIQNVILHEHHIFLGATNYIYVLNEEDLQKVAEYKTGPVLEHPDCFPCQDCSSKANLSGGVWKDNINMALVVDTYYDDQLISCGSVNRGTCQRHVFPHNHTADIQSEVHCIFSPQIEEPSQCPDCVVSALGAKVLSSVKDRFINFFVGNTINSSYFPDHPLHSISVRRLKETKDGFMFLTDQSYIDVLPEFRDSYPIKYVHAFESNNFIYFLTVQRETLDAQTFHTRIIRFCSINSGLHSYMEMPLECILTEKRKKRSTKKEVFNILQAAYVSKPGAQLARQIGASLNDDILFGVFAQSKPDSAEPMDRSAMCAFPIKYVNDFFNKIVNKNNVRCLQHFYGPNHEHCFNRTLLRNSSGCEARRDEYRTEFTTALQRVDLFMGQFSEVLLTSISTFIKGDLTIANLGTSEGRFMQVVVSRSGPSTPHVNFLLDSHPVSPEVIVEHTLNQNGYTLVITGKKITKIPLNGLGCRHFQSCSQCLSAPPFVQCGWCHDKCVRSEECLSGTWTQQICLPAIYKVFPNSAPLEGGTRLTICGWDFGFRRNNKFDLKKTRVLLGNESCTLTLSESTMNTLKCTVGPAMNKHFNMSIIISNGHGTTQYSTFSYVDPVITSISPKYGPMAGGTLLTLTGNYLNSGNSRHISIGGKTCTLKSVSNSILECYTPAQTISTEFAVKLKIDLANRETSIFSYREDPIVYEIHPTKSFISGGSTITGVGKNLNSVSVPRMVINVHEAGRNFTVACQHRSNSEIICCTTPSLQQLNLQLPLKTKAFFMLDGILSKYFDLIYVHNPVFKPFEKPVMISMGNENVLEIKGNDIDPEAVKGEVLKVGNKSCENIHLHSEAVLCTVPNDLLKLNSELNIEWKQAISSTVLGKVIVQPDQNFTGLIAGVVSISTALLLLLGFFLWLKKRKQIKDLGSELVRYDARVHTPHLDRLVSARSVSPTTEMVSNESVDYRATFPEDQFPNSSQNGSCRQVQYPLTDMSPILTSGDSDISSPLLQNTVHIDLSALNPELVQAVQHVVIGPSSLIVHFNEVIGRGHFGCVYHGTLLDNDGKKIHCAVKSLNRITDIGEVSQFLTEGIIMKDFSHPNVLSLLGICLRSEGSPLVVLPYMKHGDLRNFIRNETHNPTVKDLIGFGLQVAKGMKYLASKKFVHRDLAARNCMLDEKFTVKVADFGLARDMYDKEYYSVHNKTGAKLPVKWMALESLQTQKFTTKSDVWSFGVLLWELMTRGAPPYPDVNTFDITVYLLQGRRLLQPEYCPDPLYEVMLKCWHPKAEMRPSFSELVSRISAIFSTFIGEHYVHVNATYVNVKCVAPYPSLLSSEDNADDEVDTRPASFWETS
Structure (SMILES),% c-Met kinase activity remains (c-Met),remaining activity at 0.1 µM (VEGFR2),remaining activity at 0.1 µM (PDGFRβ)
"Cl.O=C(Nc1ccccc1)Nc1cccc2c1ccn2Cc1c[nH]c2ncccc12 [Example 4, 1-Phenyl-3-[1-(1H-pyrrolo[2,3-b]pyridin-3-ylmethyl)-1H-indol-4-yl]urea hydrochloride]",B (the percentage is greater or equal to 70%),≥ 70%,≥ 70%
"O=C(Nc1ccc(Cl)cc1)Nc1cccc2c1ccn2Cc1c[nH]c2ncccc12 [Example 10, 1-(4-Chlorophenyl)-3-[1-(1H-pyrrolo[2,3-b]pyridin-3-ylmethyl)-1H-indol-4-yl]urea hydrochloride]",B (the percentage is greater or equal to 70%),≥ 70%,≥ 70%
"Cl.O=C(Nc1cccc(Br)c1)Nc1cccc2c1ccn2Cc1c[nH]c2ncccc12 [Example 12, 1-(3-Bromophenyl)-3-[1-(1H-pyrrolo[2,3-b]pyridin-3-ylmethyl)-1H-indol-4-yl]urea hydrochloride]",A (the percentage of kinase activity remains is below 70%),< 70%,≥ 70%
"Cl.O=C(Nc1ccc(Br)cc1)Nc1cccc2c1ccn2Cc1c[nH]c2ncccc12 [Example 13, 1-(4-Bromophenyl)-3-[1-(1H-pyrrolo[2,3-b]pyridin-3-ylmethyl)-1H-indol-4-yl]urea hydrochloride]",A (the percentage of kinase activity remains is below 70%),≥ 70%,≥ 70%
"Cl.O=C(Nc1cccc(OC(F)(F)F)c1)Nc1cccc2c1ccn2Cc1c[nH]c2ncccc12 [Example 21, 1-(3-Trifluoromethoxyphenyl)-3-[1-(1H-pyrrolo[2,3-b]pyridin-3-ylmethyl)-1H-indol-4-yl]urea hydrochloride]",B (the percentage is greater or equal to 70%),≥ 70%,≥ 70%
"Cl.O=C(Nc1ccc(OC(F)(F)F)cc1)Nc1cccc2c1ccn2Cc1c[nH]c2ncccc12 [Example 22, 1-(4-Trifluoromethoxyphenyl)-3-[1-(1H-pyrrolo[2,3-b]pyridin-3-ylmethyl)-1H-indol-4-yl]urea hydrochloride]",A (the percentage of kinase activity remains is below 70%),≥ 70%,≥ 70%
"COc1ccc(F)c(NC(=O)Nc2cccc3c2ccn3Cc2c[nH]c3ncccc23)c1 [Example 31, 1-(2-Fluoro-5-methoxyphenyl)-3-[1-(1H-pyrrolo[2,3-b]pyridin-3-ylmethyl)-1H-indol-4-yl]urea hydrochloride]",–,–,≥ 70%
"O=C(Nc1ccccc1Cl)Nc1cccc2c1ccn2Cc1ccnc2[nH]ccc12 [Example 37, 1-(2-Chlorophenyl)-3-[1-(1H-pyrrolo[2,3-b]pyridin-4-ylmethyl)-1H-indol-4-yl]urea hydrochloride]",A (the percentage of kinase activity remains is below 70%),< 70%,–
"O=C(Nc1ccc(Cl)cc1)Nc1cccc2c1ccn2Cc1ccnc2[nH]ccc12 [Example 39, 1-(4-Chlorophenyl)-3-[1-(1H-pyrrolo[2,3-b]pyridin-4-ylmethyl)-1H-indol-4-yl]urea hydrochloride]",A (the percentage of kinase activity remains is below 70%),< 70%,–
"Cl.O=C(Nc1ccccc1Br)Nc1cccc2c1ccn2Cc1ccnc2[nH]ccc12 [Example 40, 1-(2-Bromophenyl)-3-[1-(1H-pyrrolo[2,3-b]pyridin-4-ylmethyl)-1H-indol-4-yl]urea hydrochloride]",A (the percentage of kinase activity remains is below 70%),< 70%,–
"Cl.O=C(Nc1cccc(Br)c1)Nc1cccc2c1ccn2Cc1ccnc2[nH]ccc12 [Example 41, 1-(3-Bromophenyl)-3-[1-(1H-pyrrolo[2,3-b]pyridin-4-ylmethyl)-1H-indol-4-yl]urea hydrochloride]",B (the percentage is greater or equal to 70%),≥ 70%,–
"Cl.O=C(Nc1ccc(Br)cc1)Nc1cccc2c1ccn2Cc1ccnc2[nH]ccc12 [Example 42, 1-(4-Bromophenyl)-3-[1-(1H-pyrrolo[2,3-b]pyridin-4-ylmethyl)-1H-indol-4-yl]urea hydrochloride]",B (the percentage is greater or equal to 70%),< 70%,–
"Cc1ccc(NC(=O)Nc2cccc3c2ccn3Cc2ccnc3[nH]ccc23)cc1.Cl [Example 45, 1-(4-Methylphenyl)-3-[1-(1H-pyrrolo[2,3-b]pyridin-4-ylmethyl)-1H-indol-4-yl]urea hydrochloride]",A (the percentage of kinase activity remains is below 70%),< 70%,–
"COc1ccccc1NC(=O)Nc1cccc2c1ccn2Cc1ccnc2[nH]ccc12.Cl [Example 46, 1-(2-Methoxyphenyl)-3-[1-(1H-pyrrolo[2,3-b]pyridin-4-ylmethyl)-1H-indol-4-yl]urea hydrochloride]",B (the percentage is greater or equal to 70%),≥ 70%,–
"O=C(Nc1ccccc1C(F)(F)F)Nc1cccc2c1ccn2Cc1ccnc2[nH]ccc12 [Example 50, 1-(2-Trifluoromethylphenyl)-3-[1-(1H-pyrrolo[2,3-b]pyridin-4-ylmethyl)-1H-indol-4-yl]urea hydrochloride]",–,–,≥ 70%
"N#Cc1cccc(NC(=O)Nc2cccc3c2ccn3Cc2ccnc3[nH]ccc23)c1 [Example 53, 1-(3-Cyanophenyl)-3-[1-(1H-pyrrolo[2,3-b]pyridin-4-ylmethyl)-1H-indol-4-yl]urea hydrochloride]",–,–,≥ 70%
"Cl.O=C(Nc1cc(Br)ccc1F)Nc1cccc2c1ccn2Cc1ccnc2[nH]ccc12 [Example 57, 1-(2-Fluoro-5-bromophenyl)-3-[1-(1H-pyrrolo[2,3-b]pyridin-4-ylmethyl)-1H-indol-4-yl]urea hydrochloride]",A (the percentage of kinase activity remains is below 70%),< 70%,–
"Cc1ccc(Br)c(NC(=O)Nc2cccc3c2ccn3Cc2ccnc3[nH]ccc23)c1.Cl [Example 58, 1-(2-Bromo-5-methylphenyl)-3-[1-(1H-pyrrolo[2,3-b]pyridin-4-ylmethyl)-1H-indol-4-yl]urea hydrochloride]",A (the percentage of kinase activity remains is below 70%),< 70%,–
"Cc1c(F)cccc1NC(=O)Nc1cccc2c1ccn2Cc1ccnc2[nH]ccc12.Cl [Example 59, 1-(2-Methyl-3-fluorophenyl)-3-[1-(1H-pyrrolo[2,3-b]pyridin-4-ylmethyl)-1H-indol-4-yl]urea hydrochloride]",A (the percentage of kinase activity remains is below 70%),< 70%,–
